In the NIST ThermoML archive (doi:10.1021/acs.jced.8b00157):
Where “and” joins values, the source holds several entries; their conditions need not be identical. Equal values may be shown once. ± gives the expanded uncertainty stated by the source.

Test: an = ratio of the nth substance listed
Settings: 100 kPa, Liquid, Buoyancy - hydrostatic balance

[F][Al]([F])[F] [aluminum fluoride] + [F-].[K+]
Settings	mass density
1123.5 K, a2 = 1.5	1749 ± 10 kg/m3
1124 K, a2 = 1.5	1748 ± 10 kg/m3
1124.4 K, a2 = 1.5	1748 ± 10 kg/m3
1124.9 K, a2 = 1.5	1747 ± 10 kg/m3
1125.1 K, a2 = 1.5	1747 ± 10 kg/m3
1125.7 K, a2 = 1.5	1747 ± 10 kg/m3
1126.2 K, a2 = 1.5	1747 ± 10 kg/m3
1126.6 K, a2 = 1.5	1746 ± 10 kg/m3
1127 K, a2 = 1.5	1746 ± 10 kg/m3
1127.4 K, a2 = 1.5	1746 ± 10 kg/m3
1127.8 K, a2 = 1.5	1745 ± 10 kg/m3
1128.2 K, a2 = 1.5	1745 ± 10 kg/m3
1128.6 K, a2 = 1.5	1745 ± 10 kg/m3
1128.9 K, a2 = 1.5	1745 ± 10 kg/m3
1129.6 K, a2 = 1.5	1744 ± 10 kg/m3
1129.8 K, a2 = 1.5	1744 ± 10 kg/m3
1130.3 K, a2 = 1.5	1743 ± 10 kg/m3
1130.8 K, a2 = 1.5	1743 ± 10 kg/m3
1131 K, a2 = 1.5	1743 ± 10 kg/m3
1131.5 K, a2 = 1.5	1742 ± 10 kg/m3
1132 K, a2 = 1.5	1742 ± 10 kg/m3
1132.3 K, a2 = 1.5	1742 ± 10 kg/m3
1132.7 K, a2 = 1.5	1742 ± 10 kg/m3
1133.2 K, a2 = 1.5	1741 ± 10 kg/m3
1133.6 K, a2 = 1.5	1741 ± 10 kg/m3
1134 K, a2 = 1.5	1741 ± 10 kg/m3
1134.3 K, a2 = 1.5	1740 ± 10 kg/m3
1134.8 K, a2 = 1.5	1740 ± 10 kg/m3
1135.2 K, a2 = 1.5	1740 ± 10 kg/m3
1135.6 K, a2 = 1.5	1739 ± 11 kg/m3
1136.1 K, a2 = 1.5	1739 ± 10 kg/m3
1163.2 K, a2 = 1.7	1864 ± 10 kg/m3
1163.3 K, a2 = 1.7	1864 ± 11 kg/m3
1163.4 K, a2 = 1.7	1864 ± 11 kg/m3
1163.6 K, a2 = 1.7	1863 ± 10 kg/m3
1164.4 K, a2 = 1.7	1863 ± 11 kg/m3
1165 K, a2 = 1.7	1864 ± 11 kg/m3
1165.1 K, a2 = 1.7	1863 ± 11 kg/m3
1165.3 K, a2 = 1.7	1862 ± 11 kg/m3 and 1863 ± 11 kg/m3
1165.4 K, a2 = 1.7	1863 ± 11 kg/m3
1166.1 K, a2 = 1.7	1861 ± 11 kg/m3
1166.2 K, a2 = 1.7	1861 ± 11 kg/m3
1166.4 K, a2 = 1.7	1862 ± 11 kg/m3
1166.6 K, a2 = 1.7	1862 ± 11 kg/m3
1166.8 K, a2 = 1.7	1861 ± 10 kg/m3
1167 K, a2 = 1.7	1860 ± 10 kg/m3
1167.3 K, a2 = 1.7	1860 ± 10 kg/m3 and 1861 ± 10 kg/m3
1167.5 K, a2 = 1.7	1860 ± 11 kg/m3
1167.6 K, a2 = 1.7	1861 ± 11 kg/m3
1168.2 K, a2 = 1.7	1860 ± 11 kg/m3
1168.6 K, a2 = 1.7	1859 ± 10 kg/m3
1169.1 K, a2 = 1.7	1860 ± 11 kg/m3 and 1859 ± 10 kg/m3
1169.2 K, a2 = 1.7	1859 ± 10 kg/m3
1169.4 K, a2 = 1.7	1858 ± 10 kg/m3
1169.6 K, a2 = 1.7	1858 ± 10 kg/m3
1169.7 K, a2 = 1.7	1858 ± 10 kg/m3
1169.8 K, a2 = 1.7	1858 ± 10 kg/m3
1170.3 K, a2 = 1.7	1857 ± 11 kg/m3
1170.5 K, a2 = 1.7	1857 ± 11 kg/m3
1170.6 K, a2 = 1.7	1857 ± 11 kg/m3
1171.1 K, a2 = 1.7	1857 ± 11 kg/m3
1172 K, a2 = 1.7	1856 ± 11 kg/m3 and 1857 ± 11 kg/m3
1172.2 K, a2 = 1.7	1855 ± 10 kg/m3
1172.7 K, a2 = 1.7	1856 ± 11 kg/m3
1173.3 K, a2 = 1.7	1856 ± 11 kg/m3
1173.8 K, a2 = 1.7	1854 ± 11 kg/m3
1174 K, a2 = 1.7	1855 ± 10 kg/m3
1174.1 K, a2 = 1.7	1855 ± 11 kg/m3 and 1854 ± 11 kg/m3
1174.5 K, a2 = 1.7	1853 ± 10 kg/m3
1174.6 K, a2 = 1.7	1854 ± 10 kg/m3
1174.9 K, a2 = 1.7	1855 ± 10 kg/m3
1175.1 K, a2 = 1.7	1852 ± 10 kg/m3 and 1854 ± 10 kg/m3
1175.4 K, a2 = 1.7	1854 ± 10 kg/m3
1175.6 K, a2 = 1.7	1854 ± 11 kg/m3
1175.8 K, a2 = 1.7	1853 ± 10 kg/m3
1175.9 K, a2 = 1.7	1852 ± 10 kg/m3
1176 K, a2 = 1.7	1852 ± 10 kg/m3 and 1853 ± 10 kg/m3
1176.8 K, a2 = 1.7	1851 ± 10 kg/m3
1177.3 K, a2 = 1.7	1851 ± 10 kg/m3
1177.5 K, a2 = 1.7	1852 ± 10 kg/m3
1177.8 K, a2 = 1.7	1851 ± 10 kg/m3
1177.9 K, a2 = 1.7	1852 ± 10 kg/m3
1178.2 K, a2 = 1.7	1851 ± 11 kg/m3
1178.3 K, a2 = 1.7	1851 ± 10 kg/m3
1178.4 K, a2 = 1.7	1850 ± 10 kg/m3
1179.5 K, a2 = 1.7	1849 ± 11 kg/m3
1179.7 K, a2 = 1.7	1849 ± 11 kg/m3
1179.8 K, a2 = 1.7	1850 ± 10 kg/m3
1179.9 K, a2 = 1.7	1849 ± 10 kg/m3
1180 K, a2 = 1.7	1850 ± 11 kg/m3
1180.2 K, a2 = 1.7	1848 ± 11 kg/m3
1180.4 K, a2 = 1.7	1849 ± 10 kg/m3
1180.7 K, a2 = 1.7	1849 ± 11 kg/m3
1181 K, a2 = 1.7	1848 ± 11 kg/m3
1181.4 K, a2 = 1.7	1849 ± 10 kg/m3
1181.5 K, a2 = 1.7	1848 ± 11 kg/m3
1181.8 K, a2 = 1.7	1847 ± 11 kg/m3
1182.4 K, a2 = 1.7	1846 ± 10 kg/m3 and 1847 ± 10 kg/m3 and 1848 ± 10 kg/m3
1182.6 K, a2 = 1.7	1847 ± 11 kg/m3
1182.7 K, a2 = 1.7	1847 ± 11 kg/m3
1183.2 K, a2 = 1.7	1846 ± 10 kg/m3
1183.6 K, a2 = 1.7	1846 ± 11 kg/m3
1183.8 K, a2 = 1.7	1846 ± 10 kg/m3
1184.2 K, a2 = 1.7	1846 ± 10 kg/m3
1184.3 K, a2 = 1.7	1845 ± 10 kg/m3
1184.6 K, a2 = 1.7	1846 ± 10 kg/m3
1184.8 K, a2 = 1.7	1845 ± 10 kg/m3
1184.9 K, a2 = 1.7	1845 ± 10 kg/m3
1185.1 K, a2 = 1.7	1845 ± 10 kg/m3
1185.4 K, a2 = 1.7	1844 ± 10 kg/m3
1185.7 K, a2 = 1.7	1844 ± 10 kg/m3
1186.3 K, a2 = 1.7	1843 ± 10 kg/m3
1186.4 K, a2 = 1.7	1844 ± 11 kg/m3
1186.5 K, a2 = 1.7	1844 ± 10 kg/m3
1186.8 K, a2 = 1.7	1843 ± 10 kg/m3
1186.9 K, a2 = 1.7	1843 ± 10 kg/m3
1187.8 K, a2 = 1.7	1843 ± 10 kg/m3 and 1842 ± 11 kg/m3 and 1842 ± 10 kg/m3
1188.1 K, a2 = 1.7	1842 ± 10 kg/m3
